# Measured values: patent US20250152611A1, “IMMUNOMODULATORY LIPIDS AND USES THEREOF” (President and Fellows of Harvard College, priority 2022, published 2025)
# Legend:
# TLR2-TLR1 heterodimers = TLR2-TLR1 heterodimers (Homo sapiens, UniProt O60603+Q15399); assay: Potency comparison of TLR2-TLR1 agonists (EC50); format: cell-based; conditions: order of magnitude only
# [1] = test system: mouse bone marrow-derived dendritic cells (mBMDCs); assay: mBMDC cytokine assay (wild-type cells; TNFα ELISA, cytometric bead array); format: cell-based; conditions: overnight, fractions or purified compounds at 50 μg/ml
# Description: Previously, to identify immunoregulatory small molecules from gut microbes, an unbiased functional assay was employed using cytokine release from murine bone marrow-derived dendritic cells (mBMDCs) in response to fractionated bacterial extracts (7). Dendritic cells, which are part of the innate immune system, detect pathogen-associated molecules and relay information to the adaptive immune system through the release of cytokines. It was reasoned that the same approach would identify immunomodulatory molecules produced by A. muciniphila.
# These assays were done as described previously (21). Femurs and tibias were collected from male or female wild-type, TLR2^−/−, or TLR4^−/− C57BL/6 mice that were at least 3-4 weeks old and preferably 7-12 weeks of age. The bone marrow was pushed from the bones using a needle and syringe of complete Dulbecco's Modified Eagle Medium (DMEM) (supplemented with Gibco GlutaMAX Supplement (35050061), Gibco Penicillin-Streptomycin (15140122), and 10% heat-inactivated fetal bovine serum (FBS)) and strained through a 70 μm nylon filter. […] Cells were counted and then plated at approximately 5 million cells per plate with ˜20-40 ng/ml RmGM-CSF (PreProTech 315-03). […] The resulting bone marrow derived dendritic cells (mBMDCs), were then scraped and counted again. […] Data was collected with NovoExpress 1.4.1 and analyzed using FlowJo v10.7.
# TLR2-TLR1 heterodimers, sequence (O60603 21-784): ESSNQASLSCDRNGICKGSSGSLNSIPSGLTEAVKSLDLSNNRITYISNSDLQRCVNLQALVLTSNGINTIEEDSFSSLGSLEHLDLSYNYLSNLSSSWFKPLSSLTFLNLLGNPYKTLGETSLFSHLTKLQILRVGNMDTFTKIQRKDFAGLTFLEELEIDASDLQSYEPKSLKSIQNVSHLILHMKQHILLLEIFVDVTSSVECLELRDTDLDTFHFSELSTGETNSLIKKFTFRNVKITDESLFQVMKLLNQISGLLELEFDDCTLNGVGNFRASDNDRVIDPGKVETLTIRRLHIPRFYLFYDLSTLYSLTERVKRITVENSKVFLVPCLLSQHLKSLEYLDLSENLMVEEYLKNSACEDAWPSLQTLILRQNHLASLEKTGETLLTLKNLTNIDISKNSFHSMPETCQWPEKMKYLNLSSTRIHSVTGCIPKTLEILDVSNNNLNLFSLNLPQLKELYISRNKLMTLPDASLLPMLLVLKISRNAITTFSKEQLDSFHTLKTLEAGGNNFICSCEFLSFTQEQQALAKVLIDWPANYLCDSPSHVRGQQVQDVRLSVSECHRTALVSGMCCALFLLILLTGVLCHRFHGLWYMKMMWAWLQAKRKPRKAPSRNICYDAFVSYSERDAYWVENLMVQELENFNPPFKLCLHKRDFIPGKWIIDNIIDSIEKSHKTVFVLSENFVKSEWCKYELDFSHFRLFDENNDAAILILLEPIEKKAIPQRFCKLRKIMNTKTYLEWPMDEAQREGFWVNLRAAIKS
# TLR2-TLR1 heterodimers, sequence (Q15399 25-786): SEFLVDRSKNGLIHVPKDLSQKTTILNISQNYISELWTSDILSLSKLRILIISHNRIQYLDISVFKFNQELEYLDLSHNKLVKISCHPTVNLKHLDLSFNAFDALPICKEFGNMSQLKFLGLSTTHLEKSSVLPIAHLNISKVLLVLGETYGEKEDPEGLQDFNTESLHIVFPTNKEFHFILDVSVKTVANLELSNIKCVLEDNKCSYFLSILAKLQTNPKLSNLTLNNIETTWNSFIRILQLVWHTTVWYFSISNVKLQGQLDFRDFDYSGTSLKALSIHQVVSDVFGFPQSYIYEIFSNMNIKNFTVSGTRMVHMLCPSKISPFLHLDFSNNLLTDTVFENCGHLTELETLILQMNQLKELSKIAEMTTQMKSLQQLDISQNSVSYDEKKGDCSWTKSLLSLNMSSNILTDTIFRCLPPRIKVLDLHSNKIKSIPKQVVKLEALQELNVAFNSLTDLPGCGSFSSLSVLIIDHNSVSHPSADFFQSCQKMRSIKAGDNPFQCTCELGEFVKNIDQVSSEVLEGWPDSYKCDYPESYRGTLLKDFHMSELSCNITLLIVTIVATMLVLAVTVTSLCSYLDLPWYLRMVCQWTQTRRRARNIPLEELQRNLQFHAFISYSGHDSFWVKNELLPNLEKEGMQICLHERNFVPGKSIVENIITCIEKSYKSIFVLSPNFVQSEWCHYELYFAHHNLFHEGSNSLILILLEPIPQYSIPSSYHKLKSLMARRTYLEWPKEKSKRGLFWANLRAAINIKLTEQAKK
EC50 values (TLR2-TLR1 heterodimers),SMILES,TNFα induction/production [1]
μM,"CC[C@H](C)CCCCCCCCCCC(=O)OC[C@@H](COP(=O)(O)OCCN)OC(=O)CCCCCCCCCCCC(C)C [a15:0-i15:0 PE, 12-methyltetradecanoyl-13-methyltetradecanoyl-sn-glycero-3-phosphoethanolamine]",
,CCCCCCCCCCCCCC(=O)OC[C@H](COP(=O)(O)OCCN)OC(=O)CCCCCCCCCCCCC [n14:0-n14:0 PE],no detectable TNFα induction
,CCCCCCCCCCCCCCCC(=O)OCC(COP(=O)(O)OCCN)OC(=O)CCCCCCCCCCCCCCC (stereo not drawn) [n16:0-n16:0 PE],no detectable TNFα induction
